The values below come from patent US20250235543A1, “MODIFIED PROTEINS AND PROTEIN DEGRADERS” (Cullgen (Shanghai), Inc., priority 2021, published 2025).

For one assay, the system named is Cal-62. Put plainly: Cell viability assay, Cal-62. The class given is cell-based. The settings on record: Homo sapiens, 72 h; Cal-62, TC, 3 days; read-out: Cellular Anti-proliferation activity (IC50). The procedure: (§1) Cells were treated with CDK4/6 inhibitors palbociclib, ribociclib, or abemaciclib, or heterobifunctional compounds CPD-002 or CPD-031 following a 9-point serial dilution for 3 days.
(§2) Cells were seeded at a density of 2,000-5,000 cells per well in 96-well assay plates and treated with test compounds following a 10-point serial dilution for 3-6 days. Cell viability was determined using the CellTiter-Lumi assay kit according to the manufacturer's instructions. The dose-response curves were determined and IC50 values were calculated using the GraphPad Prism software following a nonlinear regression (least squares fit) method. Data presented was mean±standard deviation (SD) unless otherwise indicated.

A further assay relates to cyclin D1. Put plainly: Cyclin D1 percentage degradation in Calu-1 cells (immunoblotting). The class given is cell-based. The settings on record: 200 nM, 16 hours. The essentials:
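Cells were rinsed once in cold PBS and lysed in cold RIPA buffer containing protease and phosphatase inhibitors, with gentle agitation at 4° C. for 30 min. Lysates were spun at 13,000 rpm for 10 min at 4° C., protein was measured by BCA, and samples were boiled in Laemmli buffer at 99° C. for 5 min before SDS-PAGE immunoblotting.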
(Immunoblotting shows a protein as a band on a membrane.)

The target of a further assay is T1, DDB1 (Homo sapiens, UniProt Q16531, D705G/DEL396-460/DEL463-701/I704S/T703N).
T1 construct: His6 (N, cleaved yes); TEV protease cleavage site (N, cleaved yes); made in house; host or cells: SF9 insect cells, Bac-to-Bac baculovirus, pFastBacHTB vector
Put plainly: SPR binding assay to immobilized DDB1ΔBPB. The settings on record: binding affinities to DDB1. In a few lines:
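Untagged Sf9-expressed DDB1ΔBPB (BPB domain aa 396-705 replaced by GNGNSG linker) amine-coupled to CM5 chip at 10,000-12,000 RU; 25° C, HBS-EP pH 7.4 with 5% DMSO. Compounds injected multi-cycle at 100 μM-3.125 μM (6-point two-fold); double-referenced, solvent-corrected data fit to steady-state model for Kd.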

The next assay has as its system OVCAR3. Put plainly: Cell viability assay, OVCAR3. The class given is cell-based. The settings on record: Homo sapiens, OVCAR-3, 72 h; OVCAR3, OC, 3 days; read-out: Cellular Anti-proliferation activity (IC50). The procedure: as §1, §2
For another assay, the system named is BT-549. Put plainly: Cell viability assay, BT-549. The class given is cell-based. The settings on record: Homo sapiens, 72 h; BT-549, TNBC, 3 days; read-out: Cellular Anti-proliferation activity (IC50). The method, then: as §1, §2
The target in a further assay is T2, CDK4 (Homo sapiens, UniProt P11802).
T2 construct: endogenous in cells; host or cells: Calu-1
Briefly: CDK4 percentage degradation in Calu-1 cells (immunoblotting). The class given is cell-based. The settings on record: Calu-1 cells, 200 nM, 16 hours; read-out: CDK4 Degradation (200 nM). The essentials: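 Cultured cells were rinsed once in cold PBS and lysed in cold RIPA buffer containing protease and phosphatase inhibitors, with gentle agitation at 4° C. for 30 min. Lysates were centrifuged at 13,000 rpm for 10 min at 4° C., and protein was quantified by BCA. Samples were then separated by SDS-PAGE, detected with ECL, and the CDK4 bands quantified in Image Lab.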

Another assay deals with MDA-MB-157. Briefly: Cell viability assay, MDA-MB-157. It is filed as cell-based. The settings on record: Homo sapiens, 72 h; MDA-MB-157, TNBC, 3 days; read-out: Cellular Anti-proliferation activity (IC50). The method, then: as §1, §2
The next assay has as its system Hs578T. Put plainly: Cell viability assay, Hs578T. The class given is cell-based. The settings on record: Homo sapiens, Hs-578T, 72 h, TNBC, 3 days, read-out: Cellular Anti-proliferation activity (IC50). The procedure:
as §1, §2

A further assay has as its system MDA-MB-453. Put plainly: Cell viability assay, MDA-MB-453. The class given is cell-based. The settings on record: Homo sapiens, 72 h; MDA-MB-453, TNBC, 3 days; read-out: Cellular Anti-proliferation activity (IC50). The procedure:
as §1, §2

The test system of another assay is NCI-H522. Put plainly: Cell viability assay, NCI-H522. The class given is cell-based. The settings on record: Homo sapiens, 72 h; NCI-H522, NSCLC, 3 days; read-out: Cellular Anti-proliferation activity (IC50). The method, then:
as §1, §2

The next assay deals with Calu-1. Put plainly: Cell viability assay, Calu-1. It is filed as cell-based. The settings on record: Homo sapiens, 72 h; Calu-1, NSCLC, 3 days; read-out: Cellular Anti-proliferation activity (IC50). In a few lines:
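Cells were exposed to a serial dilution of test compound for 3-6 days, or 3 days with a 9-point series for CDK4/6 inhibitors and heterobifunctional compounds. Viability was read by luminescence (CellTiter-Lumi). IC50 came from nonlinear least-squares regression of dose-response curves, reported as mean±SD.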

T2 sequence (P11802 2-303 limits assumed): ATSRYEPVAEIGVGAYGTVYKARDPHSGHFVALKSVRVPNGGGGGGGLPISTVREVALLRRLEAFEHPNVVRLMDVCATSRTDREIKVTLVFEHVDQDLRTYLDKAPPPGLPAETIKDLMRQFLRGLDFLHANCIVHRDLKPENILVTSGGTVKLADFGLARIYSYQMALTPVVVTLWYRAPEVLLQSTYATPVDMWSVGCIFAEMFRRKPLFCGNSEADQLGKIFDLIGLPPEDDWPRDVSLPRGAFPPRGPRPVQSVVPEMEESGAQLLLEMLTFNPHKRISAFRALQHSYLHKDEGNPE
T2 sequence (P24385 whole entry partner): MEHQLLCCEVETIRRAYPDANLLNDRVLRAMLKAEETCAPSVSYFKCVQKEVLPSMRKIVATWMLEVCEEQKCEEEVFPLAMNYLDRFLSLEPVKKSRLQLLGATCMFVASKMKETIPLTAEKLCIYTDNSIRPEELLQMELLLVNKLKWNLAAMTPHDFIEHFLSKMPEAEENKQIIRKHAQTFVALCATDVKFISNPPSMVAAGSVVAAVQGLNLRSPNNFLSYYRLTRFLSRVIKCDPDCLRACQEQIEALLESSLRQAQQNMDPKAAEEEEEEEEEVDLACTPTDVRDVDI
T2 sequence (Q16531 2-1140 limits assumed, further chain): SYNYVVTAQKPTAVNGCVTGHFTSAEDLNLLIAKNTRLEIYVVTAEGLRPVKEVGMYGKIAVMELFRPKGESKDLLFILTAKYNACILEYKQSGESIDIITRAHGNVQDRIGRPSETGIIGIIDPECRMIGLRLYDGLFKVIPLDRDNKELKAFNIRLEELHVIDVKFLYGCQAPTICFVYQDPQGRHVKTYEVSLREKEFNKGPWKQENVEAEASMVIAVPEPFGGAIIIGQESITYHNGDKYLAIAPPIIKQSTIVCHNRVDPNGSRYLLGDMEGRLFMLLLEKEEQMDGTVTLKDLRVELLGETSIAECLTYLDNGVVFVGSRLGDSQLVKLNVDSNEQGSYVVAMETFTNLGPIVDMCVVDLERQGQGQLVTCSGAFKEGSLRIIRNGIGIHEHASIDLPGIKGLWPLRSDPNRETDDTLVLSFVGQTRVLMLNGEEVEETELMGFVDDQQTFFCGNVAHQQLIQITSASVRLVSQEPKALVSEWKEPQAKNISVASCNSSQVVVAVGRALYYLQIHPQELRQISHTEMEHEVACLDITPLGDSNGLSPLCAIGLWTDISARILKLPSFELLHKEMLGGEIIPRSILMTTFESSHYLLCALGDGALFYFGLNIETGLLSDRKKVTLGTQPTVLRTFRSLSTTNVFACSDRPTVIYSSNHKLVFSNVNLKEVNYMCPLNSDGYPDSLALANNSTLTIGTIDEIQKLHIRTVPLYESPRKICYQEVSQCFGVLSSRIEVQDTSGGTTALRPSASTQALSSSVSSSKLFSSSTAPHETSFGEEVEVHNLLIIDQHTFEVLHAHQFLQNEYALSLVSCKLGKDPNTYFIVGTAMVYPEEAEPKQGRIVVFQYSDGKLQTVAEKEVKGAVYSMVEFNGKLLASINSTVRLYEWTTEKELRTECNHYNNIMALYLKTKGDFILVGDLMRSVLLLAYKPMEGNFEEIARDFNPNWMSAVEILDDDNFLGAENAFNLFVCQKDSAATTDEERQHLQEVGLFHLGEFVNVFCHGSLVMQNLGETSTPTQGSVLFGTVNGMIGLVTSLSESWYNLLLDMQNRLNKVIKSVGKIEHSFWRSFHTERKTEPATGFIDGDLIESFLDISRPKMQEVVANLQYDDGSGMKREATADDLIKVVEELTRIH
T1 sequence (Q16531 other isoform, or with tags, fused parts or gaps DEL396-460/DEL463-701/T703N/I704S/D705G): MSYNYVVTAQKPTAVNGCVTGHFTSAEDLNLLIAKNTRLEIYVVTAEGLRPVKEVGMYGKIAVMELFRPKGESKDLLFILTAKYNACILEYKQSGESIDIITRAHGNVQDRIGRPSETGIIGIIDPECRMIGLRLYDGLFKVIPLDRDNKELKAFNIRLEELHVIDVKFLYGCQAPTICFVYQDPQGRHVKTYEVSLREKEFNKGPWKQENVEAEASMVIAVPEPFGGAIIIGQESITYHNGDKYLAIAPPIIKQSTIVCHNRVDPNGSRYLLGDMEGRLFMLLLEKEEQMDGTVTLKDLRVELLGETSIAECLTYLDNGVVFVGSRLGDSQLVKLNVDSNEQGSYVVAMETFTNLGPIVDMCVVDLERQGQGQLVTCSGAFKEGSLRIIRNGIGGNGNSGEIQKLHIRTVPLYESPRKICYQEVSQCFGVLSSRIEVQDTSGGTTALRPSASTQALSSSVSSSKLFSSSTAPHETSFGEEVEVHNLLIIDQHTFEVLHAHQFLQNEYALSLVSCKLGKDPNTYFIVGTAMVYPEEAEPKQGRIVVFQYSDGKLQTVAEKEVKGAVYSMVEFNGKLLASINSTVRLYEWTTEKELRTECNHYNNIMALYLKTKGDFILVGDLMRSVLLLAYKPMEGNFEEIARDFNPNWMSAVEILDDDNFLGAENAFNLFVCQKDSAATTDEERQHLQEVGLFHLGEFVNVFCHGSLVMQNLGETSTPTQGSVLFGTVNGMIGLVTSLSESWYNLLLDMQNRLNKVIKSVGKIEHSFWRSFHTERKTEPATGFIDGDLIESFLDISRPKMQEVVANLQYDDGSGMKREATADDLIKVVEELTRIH

For `CC(=O)c1c(C)c2cnc(Nc3ccc(N4CCN(CC(=O)NCCOCCOCCOCCOCCOCCNc5ccc(C(=O)Nc6ncc(C)s6)c(C)c5)CC4)cn3)nc2n(C2CCCC2)c1=O` [CPD-002, 4-((1-(4-(6-((6-Acetyl-8-cyclopentyl-5-methyl-7-oxo-7,8-dihydropyrido[2,3-d]pyrimidin-2-yl)amino)pyridin-3-yl)piperazin-1-yl)-2-oxo-6,9,12,15,18-pentaoxa-3-azaicosan-20-yl)amino)-2-methyl-N-(5-methylthiazol-2-yl)benzamide], the IC50 was 50 nM in the assay with Cal-62; 107 nM in the assay on OVCAR3; 690 nM with BT-549; 151 nM with MDA-MB-157; 215 nM in the assay on Hs578T; 741 nM in the assay with MDA-MB-453. The IC50 in the assay on NCI-H522 was found to be 638 nM; with Calu-1 it was 68 nM. Also, the “CyclinD1 Degradation (200 nM)” value with cyclin D1 is given as “A (protein percentage degradation >=80%)”. Further, the Kd (as a rule, the concentration at which binding is half-saturated) on DDB1 lay within 20000 to 50000 nM. Further, on CDK4, the inhibition at 0.2 µM lay within 50 to 80%.

In the case of `CC(=O)c1c(C)c2cnc(Nc3ccc(N4CCN(CC(=O)NCCOCCOCCOCCOCCOCCNc5ccc(C(=O)Nc6nc(C)c(C)s6)c(C)c5)CC4)cn3)nc2n(C2CCCC2)c1=O` [CPD-031, 4-((1-(4-(6-((6-Acetyl-8-cyclopentyl-5-methyl-7-oxo-7,8-dihydropyrido[2,3-d]pyrimidin-2-yl)amino)pyridin-3-yl)piperazin-1-yl)-2-oxo-6,9,12,15,18-pentaoxa-3-azaicosan-20-yl)amino)-N-(4,5-dimethylthiazol-2-yl)-2-methylbenzamide], the IC50 in the assay with Cal-62 was 5 nM; with OVCAR3, 39 nM; in the assay on BT-549, 110 nM; in the assay with MDA-MB-157 it was 28 nM; in the assay with Hs578T it was 38 nM; in the assay on MDA-MB-453, 300 nM. Further, the IC50 with NCI-H522 amounted to 155 nM; in the assay with Calu-1, 9 nM. Further, the “CyclinD1 Degradation (200 nM)” value in the assay with cyclin D1 is listed as “A (protein percentage degradation >=80%)”. For the same compound, the Kd at DDB1 was < 20000 nM. Also, the inhibition at 0.2 µM on CDK4 is > 80%.
